{"source": "patent US8188050B2", "about": "“Pharmaceutical and/or cosmetic composition containing peptides” (ISP Investments Inc., priority 2006, dated 2012)", "test_system": "Biopsies of human skin", "experiment": "Ex vivo study of the effect of the peptide on the synthesis of melanin (Fontana-Masson staining of skin biopsies)", "format": "cell-based", "settings": "two applications daily, peptide 1% starting with a 50-ppm solution, 48 hours", "experimental": "The aim of this ex vivo study is to highlight the increase in melanization produced by the peptides according to the invention.\nProtocol: Biopsies of human skin 6 mm in diameter are held in an ex vivo culture in the presence of a specific medium (1 g/L DMEM, Ham's F-12, SVF, and antibiotics) on inserts deposited on 6-well plates. […] The duration of the treatment is 48 hours. The biopsies are subsequently fixed in 9% formaldehyde and NaCl (150 mM) for 10 hours and then enclosed in paraffin. Thin-sections of the skin 3 μm thick are then made, and the melanin is specifically stained by the Fontana-Masson technique.", "note": "Entries after “also recorded” stand apart in the source; their conditions may differ.", "data": [{"substance": "Thr-Leu-Leu-Ala (TLLA) [SEQ ID No. 3, peptide fragment of the protein SLC24A5]", "values": [{"measurement": "Location/distribution of melanin in the epidermis", "value": "located in the basal layer but is also transported into the supra-basal layers; also recorded: stimulates the entire process of melanin distribution in the epidermis"}, {"measurement": "Synthesis of melanin by the melanocytes (conclusion)", "value": "strong increase in the synthesis of melanin"}, {"measurement": "Intensity of melanin coloration of skin thin-sections (Fontana-Masson staining)", "setting": "vs. untreated sections", "value": "coloration of clearly increased intensity"}]}]}
